In patent US10807959B2, “WDR5-MLL1 inhibitors and modulators” (Vanderbilt University, priority 2018, dated 2020) one finds Ki and GI50 data, which are given here for eight compounds.

In experiment [1] the target is T1, WDR5 (Homo sapiens (Human), UniProt P61964). Kind of experiment: TR-FRET binding assay, displacement of 10mer-Thr-FAM probe from His-tagged WDR5. On the procedure: The LanthaScreenTM Elite Tb-anti-HIS Antibody from ThermoFisher Scientific was used for this purpose. […] The ratio of the 520 and 495 signals are then utilized to generate a dose-response curve to calculate an IC50 value. […] WDR[…] tag protein is used at 2 nM.

Experiment [2] concerns MV4:11 cells. Kind of experiment: Cellular viability / anti-proliferative activity, CellTiter-Glo, 7 day protocol. It counts as cell-based, human. The note with it: 168 h. The method, then:
Anti proliferative activity using MLL-harboring cell lines. MV4:11 cells are grown in RPMI-1640 media supplemented with 10% FBS and 1% penicillin/streptomycin. Viability assays are performed by dispensing […] into each well of an opaque 384-well plate and adding compounds at the indicated concentrations in a final volume of 32 μL and a final concentration of DMSO of 0.1% for all samples. After a set incubation period, 7 day protocol, the viability of cells in each well is assessed using the CellTiter-Glo assay (Promega), read on a GloMax 96 Microplane Luminometer (Promega). Serial dilutions of each cell type are included in all assays to generate standard curves and determine assay measurements are taken within the dynamic range of the instrument. GI50 values are calculated based on three biological replicates, each with three technical replicates. Data are expressed as mean plus/minus S.E.M.
For orientation: Cellular ATP, detected with luciferase, serves as a proxy for viable cell number.

Experiment [3] deals with T1, WDR5. Kind of experiment: Fluorescence polarization anisotropy (FPA) competition assay, displacement of FITC-MLL or 10mer-Thr-FAM peptide. Type of experiment: binding. The following applies: Table B2, WDR5 WIN-site binding affinity; values not less than 1 nM (FPA). From the text: The assay is run in 384-well format and is read on a BioTek Cytation. […] Replicate values are fit to a 4-parameter fit in XLFit to generate a single IC50 value for each compound that is then converted to a Ki value. Experiments are repeated to generate a 2nd, independent Ki value; values from the two experiments are averaged to produce the reported Ki value for the compound.
A general note: In fluorescence polarisation assays a small probe gives low polarisation when free and higher when bound to something large.

Setting [4] is: Inhibition of WDR5 by TR-FRET assay.
The mark [5] stands for this setting: cellular proliferation of MV4:11 human cancer cell lines, 7 day.
[6] abbreviates: Homo sapiens, MV4:11 leukemia cells after a 7 day incubation period.

On to `CNc1c(C(=O)N(C)Cc2cc(OC)cc(OC)c2)cc(CNC2=NCCN2)cc1-c1ccc(F)cc1C` [Example 171, 5-(((4,5-Dihydro-1H-imidazol-2-yl)amino)methyl)-N-(3,5-dimethoxybenzyl)-4′-fluoro-N,2′-dimethyl-2-(methylamino)-[1,1′-biphenyl]-3-carboxamide], for which the Ki (as a rule, the dissociation constant of the complex between target and ligand, obtained from inhibition or displacement) in experiment [1] (setting [4]) was found to be 19 nM. Moreover, the GI50 (in general, the concentration at which growth is held to half of that of the control) in experiment [2] (setting [5]) stood at 3800 nM.
For `COc1cc(CNC(=O)c2cc(CNC3=NCCC3)cc(-c3ccc(F)cc3C)c2NC(C)=O)cc(OC)c1` [Example 172, 2-Acetamido-5-(((3,4-dihydro-2H-pyrrol-5-yl)amino)methyl)-N-(3,5-dimethoxybenzyl)-4′-fluoro-2′-methyl-[1,1′-biphenyl]-3-carboxamide], in that order: 2.1 nM and 240 nM.
`COc1cc(CNC(=O)c2cc(CNC3=NCCN3)cc(-c3ccc(F)cc3C)c2NC(C)=O)cc(OC)c1` [Example 173, 2-Acetamido-5-(((4,5-dihydro-1H-imidazol-2-yl)amino)methyl)-N-(3,5-dimethoxybenzyl)-4′-fluoro-2′-methyl-[1,1′-biphenyl]-3-carboxamide] returned a Ki in experiment [1] (setting [4]) of 7.2 nM. This compound also showed a GI50 in experiment [2] (setting [5]) of 530 nM.
`O=C(NCc1ccc(Cl)c(Cl)c1)c1ccc(F)c(CNC2=NCCN2)c1` [Example B6] came in with an inhibition constant Ki in experiment [3] of 4.01 nM. The compound further yielded a GI50 in experiment [2] (setting [6]) of 3280 nM.
The corresponding values for `COc1cc(CNC(=O)c2cccc(CNC3=NCCN3)c2F)cc(OC)c1` [Example B21] are 17.8 nM and over 30000 nM.
Turning to `Cc1cc(CNC(=O)c2cc(CNC3=NCCN3)cc(-c3cnccc3C)c2)ccc1Cl` [Example B88], the Ki in experiment [1] stood at 0.115 nM. This compound also came in with a GI50 in experiment [2] (setting [6]) of 536 nM.
For `COc1ccnc(CNC(=O)c2cc(CNC3=NCCN3)cc(-c3ccc(F)cc3C)c2)c1` [Example B114], in experiment [1], affinity was put at a Ki of 0.228 nM. For the same compound, it took 701 nM to inhibit growth in experiment [2] (setting [6]) by half (GI50).
Compound `Cc1cc(CNC(=O)c2cc(CNC3=NCCC3)cc(-c3ccc(F)nc3C)c2)ccc1Cl` [Example B129] showed a Ki in experiment [1] of 0.089 nM. In experiment [2] (setting [6]), the GI50 amounted to 109 nM.
